The values below are quoted from earlier work in patent US6660286B1, “Emulsion vehicle for poorly soluble drugs” (Sonus Pharmaceuticals, Inc., priority 1997, dated 2003).

SMILES strings stand for the structures. Like-named read-outs stand apart in the source and are kept apart here.

Consider `CC(=O)O[C@H]1C(=O)[C@@]2(C)[C@H]([C@H](OC(=O)c3ccccc3)[C@]3(O)C[C@H](OC(=O)[C@H](O)[C@@H](NC(=O)c4ccccc4)c4ccccc4)C(C)=C1C3(C)C)[C@]1(OC(C)=O)CO[C@@H]1C[C@@H]2O` [paclitaxel], for which the solubility of paclitaxel by setting is: (30% PVP in water) no more than 300 µg/mL; (35% PEG 400 in water) 30 µg/mL; (admixtures of PEG 400 and water containing 50-100% PEG 400) 200 to 175000 µg/mL.
